Laboratory results reported in EP0074307A1, “Mixed bromo-iodo benzene compounds and contrast products containing them” (Société dite: GUERBET S.A., priority 1981, dated 1983).

Tests used:
complément = assay: Complement activation (hemolytic concentration 50, CH 50); type: biochemical; set-up: unit not given here; conditions: higher CH 50 = less complement activation, better tolerance
Description: Les travaux d'Elliott C. Lasser (Investig. Radiol., 1974, 9, 4 6A) ont montré que les produits de contraste activent le complément, qui est un ensemble de protéines sériques dont l'activation peut conduire à des réactions anaphylactiques graves.
La mesure de cette activation est effectuée par la détermination de la concentration hémolytique 50 désignée CH 50. On estime que les produits moins activateurs du complément, c'est-à-dire ayant une CH 50 plus élevée , provoquent moins d'effets secondaires de type anaphylactiques et présentent donc une meilleure tolérance.

[1] = X-ray opacity measured via film densitometry, relative to Hexabrix; type: physicochemical; conditions: aqueous solutions of methylglucamine salts, same number of moles as Hexabrix (32 % iodine), X-ray source 70 kV
Description: L'opacité a été mesurée indirectement à l'aide de l'impression produite sur un film photographique par un faisceau de rayons X traversant une cuve contenant une solution aqueuse des composés. La transparence du film après développement a été mesurée à l'aide d'un densi- tomètre optique. Dans chaque cas, la mesure a été effectuée sur le même film et avec la même source de rayons X (70 kV) par comparaison avec un produit opacifiant servant de référence.
Comme produit de référence, on a utilisé l'Hexa- brix qui est une solution de sels de sodium et de méthyl- glucamine de l'acide ioxaglique à 32 % en iode.
Les composés selon l'invention ont été testés sous forme de solutions aqueuses de leurs sels de méthyl- glucamine contenant le même nombre de moles de composés que l'Hexabrix.

| SMILES | CH 50 (complément) | Opacité relative/Hexabrix [1] |
| --- | --- | --- |
| CNC(=O)c1c(I)c(NC(=O)CNC(=O)c2c(I)cc(I)c(N(C)C(C)=O)c2I)c(I)c(C(=O)O)c1I [Analogue complètement iodé du composé 5, reference compound] | 3,8 | – |
| CNC(=O)c1c(Br)c(C(=O)NCC(=O)Nc2c(I)c(C(=O)O)c(I)c(C(=O)NCCO)c2I)c(Br)c(N(C)C(C)=O)c1Br [Composé 2, acide triiodo-2,4,6 N-hydroxyéthylcarbamoyl-3 (tribromo-2,4,6 N-méthylcarbamoyl-3 N-méthyl N-acétylamino-5 benzoyl) glycylamino-5 benzoïque] | 20,8 | 0,92 |
| CNC(=O)c1c(I)c(C(=O)NCC(=O)Nc2c(Br)c(C(=O)O)c(Br)c(C(=O)NCCO)c2Br)c(I)c(N(C)C(C)=O)c1I [compound 1, acide tribromo-2,4,6 N-hydroxyéthylcarbamoyl-3 (triiodo-2,4,6 N-méthylcarbamoyl-3 N-méthyl N-acétylamino-5 benzoyl) glycylamino-5 benzoique] | 20,2 | 0,91 |
| CNC(=O)c1c(I)c(NC(=O)CNC(=O)c2c(Br)cc(Br)c(N(C)C(C)=O)c2Br)c(I)c(C(=O)O)c1I [compound 5] | 7,4 | 0,92 |
| CNC(=O)c1c(I)c(C(=O)NCC(=O)Nc2c(Br)cc(Br)c(C(=O)O)c2Br)c(I)c(N(C)C(C)=O)c1I [compound 7] | 10,0 | – |
| CNC(=O)c1c(Br)c(C(=O)NCC(=O)Nc2c(I)cc(I)c(C(=O)O)c2I)c(Br)c(N(C)C(C)=O)c1Br [compound 8] | 11,5 | – |
| CNC(=O)c1c(Br)c(C(=O)NCCC(=O)Nc2c(I)cc(I)c(C(=O)O)c2I)c(Br)c(N(C)C(C)=O)c1Br [compound 12] | 11,0 | – |
| CNC(=O)c1c(Br)c(C(=O)NCCCC(=O)Nc2c(I)c(C(=O)O)c(I)c(C(=O)NCCO)c2I)c(Br)c(N(C)C(C)=O)c1Br [compound 13] | 15,3 | – |
